Measurements: patent US20130252930A1 (BIOMARIN PHARMACEUTICAL INC., priority 2010, published 2013)
Where two headings read alike, the source gives them in different places.

Tests used:
[1] = Rat liver microsome stability assay (Biological Example 8a); conditions: liver microsomes, pH 7.4
Experimental: Each test compound (1.5 μM, 30 μL) was incubated with rat (BD Gentest, Cat No. 452501) or human (BD Gentest, Cat No. 452161) liver microsomes (0.75 mg/mL, 0.1 M potassium phosphate buffer, 1.0 mM EDTA, pH 7.4) in 96 well plates. The reaction was started with addition of excess NADPH (5 mg/mL, 15 μL in 0.1 M potassium phosphate buffer, 1.0 mM EDTA, pH 7.4), the total volume is 45 μL (compound final concentration was 1 μM). The incubations were terminated at time zero and at 5, 15, 30, and 60 minutes by addition of 135 μL/excess ACN containing internal standard (1S). After quenching, the reaction mixtures was centrifuged (Eppendorf Centrifuge 5810R) at 3220×g for 10 min (4° C.). 50 μL of the supernatant was transferred from each well into a 96-well sample plate containing 50 μL of ultra-pure water (Millipore) for LC-MS/MS analysis. The half-life T1/2=0.693/K (K is the rate constant from a plot of log [concentration] vs. incubation time) was calculated.

[2] = Human liver microsome stability assay (Biological Example 8b); conditions: liver microsomes, pH 7.4
Experimental: The reaction was started with addition of excess NADPH (5 mg/mL, 15 μL in 0.1 M potassium phosphate buffer, 1.0 mM EDTA, pH 7.4), the total volume is 45 μL (compound final concentration was 1 μM). […] 50 μL of the supernatant was transferred from each well into a 96-well sample plate containing 50 μL of ultra-pure water (Millipore) for LC-MS/MS analysis.

[3] = target: T1, CYP17 (human testicular microsome) (Homo sapiens, UniProt P05093); assay: CYP17 enzymatic assay (IC50) (Biological Example 4); type: biochemical
T1 construct: using microsomal fraction from human testis (Celsis Cat #S00110) as the enzyme source; tissue Celsis S00110; host or cells: human testis microsomal fraction
T1 sequence (P05093 1-508): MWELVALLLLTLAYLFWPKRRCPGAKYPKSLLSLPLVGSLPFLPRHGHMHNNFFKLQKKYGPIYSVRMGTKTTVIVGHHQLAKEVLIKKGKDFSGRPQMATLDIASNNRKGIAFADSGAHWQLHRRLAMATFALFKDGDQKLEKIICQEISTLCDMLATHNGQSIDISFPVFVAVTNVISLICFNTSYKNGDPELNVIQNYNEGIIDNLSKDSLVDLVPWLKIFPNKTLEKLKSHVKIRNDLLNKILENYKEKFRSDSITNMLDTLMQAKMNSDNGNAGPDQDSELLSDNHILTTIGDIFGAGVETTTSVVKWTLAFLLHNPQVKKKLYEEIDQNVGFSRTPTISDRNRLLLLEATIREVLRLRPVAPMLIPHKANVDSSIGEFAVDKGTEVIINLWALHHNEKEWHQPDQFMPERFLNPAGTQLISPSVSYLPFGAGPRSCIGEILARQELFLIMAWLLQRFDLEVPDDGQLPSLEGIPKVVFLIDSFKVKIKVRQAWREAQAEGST

CYP17 (H295R cells) = target: T2, CYP17 (H295R cells) (Homo sapiens, UniProt P05093); assay: CYP17 cellular assay (IC50), testosterone in H295R cells (Biological Example 7); type: cell-based
T2 construct: endogenous in cells; host or cells: H295R cells
T2 sequence (P05093 1-508): T1 sequence (P05093 1-508)
Outline: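 Testosterone in the medium was quantified by ELISA after 24 h at 37 °C with test compound (final 100, 10, 1, 0.1 nM; serum-free DMEM/F-12, ITS+, 0.1% methanol). The H295R cells had been seeded and grown 24 h beforehand; vehicle wells served as control.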

[4] = target: T1, CYP17 (human testicular microsome); assay: CYP17 enzymatic assay (% inhibition at 10 nM), version 1 (Biological Example 5); type: biochemical; conditions: 10 nM compound, DHEA by ELISA, read-out: Biological Example No. 5: CYP17 percent inhibition at 10 nM (version 1)
[5] = target: T3, Cyp21 enzyme (Human HEK 293-Cyp21 stable transfected cells) (Homo sapiens, UniProt P08686); assay: CYP21-HEK293 enzymatic assay (% inhibition at 100 nM) (Biological Example 10); type: cell-based; conditions: 100 nM compound, HEK 293-Cyp21 cells; read-out: Biological Example No. 10: CYP21-HEK293 percent inhibition at 100 nM
T3 construct: expressed in transfected cells
T3 sequence (P08686 1-495): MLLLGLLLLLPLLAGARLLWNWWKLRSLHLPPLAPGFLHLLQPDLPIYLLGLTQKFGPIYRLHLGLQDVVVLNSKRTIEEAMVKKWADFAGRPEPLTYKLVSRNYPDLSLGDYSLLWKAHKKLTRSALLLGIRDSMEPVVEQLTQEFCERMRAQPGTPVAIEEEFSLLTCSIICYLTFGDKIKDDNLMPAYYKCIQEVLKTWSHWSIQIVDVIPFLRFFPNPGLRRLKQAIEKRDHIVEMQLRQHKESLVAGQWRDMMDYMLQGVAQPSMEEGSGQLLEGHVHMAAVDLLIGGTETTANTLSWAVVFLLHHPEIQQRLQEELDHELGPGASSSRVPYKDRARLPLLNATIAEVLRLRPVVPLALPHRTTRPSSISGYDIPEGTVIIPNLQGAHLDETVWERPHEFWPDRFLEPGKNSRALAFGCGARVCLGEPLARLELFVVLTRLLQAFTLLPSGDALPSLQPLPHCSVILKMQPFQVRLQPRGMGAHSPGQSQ
Outline: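 Percent inhibition at 100 nM: DOC in conditioned medium was read by ELISA at 450 nm and quantified from a standard curve. Stably transfected human Cyp21 HEK293 cells were pretreated 5 h with compound or 1% methanol mock, then given 10 μM final progesterone for 20 h at 37 °C.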

[6] = system: rat Cyp11B enzyme (rat adrenal mitochondria); assay: CYP11B enzymatic assay (% inhibition at 100 nM) (Biological Example 9); type: biochemical; conditions: 100 nM compound, cortisol by ELISA
Outline: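 Sprague Dawley rat adrenal mitochondria were incubated with compound at 100 nM, 0.5 mM NADPH and 0.1 μM 11-deoxycortisol (pH 7.4 Tris buffer) for 60 min at 37 °C. Cortisol was measured by ELISA and corrected by subtracting the no-NADPH background. % inhibition is relative to the no-compound reaction.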

[7] = H295R cells, testosterone by ELISA, 24 hours, read-out: Biological Example No. 7: CYP17 cellular assay IC50
[8] = human testicular microsome, DHEA by ELISA, read-out: Biological Example No. 4: CYP17 enzymatic assay IC50

SMILES	half-life at 1 μM [1]	half-life at 1 μM [2]	IC50 [3]	IC50 (CYP17 (H295R cells); [7])	inhibition at 0.01 µM [4]	inhibition at 0.1 µM [5]	IC50 [3, 8]	Biological Example No. 9: CYP11B percent inhibition at 100 nM [6]	IC50 (CYP17 (H295R cells))
C[C@]12CC[C@H]3[C@@H](CC[C@H]4C[C@@H](O)CC[C@@]43C)C1=CC=C2n1ccnc1 [Compound 170, (5S,8R,9S,10S,13S)-17-(1H-imidazol-1-yl)-10,13-dimethyl-2,3,4,5,6,7,8,9,10,11,12,13-dodecahydro-1H-cyclopenta[a]phenanthren-3-ol]	10 to 60 min	> 50 min	< 11 nM	< 15 nM	> 80%	–	–	–	–
C[C@]12CCNC(=O)C=C1CC[C@@H]1[C@@H]2CC[C@]2(C)C(c3cncnc3)=CC[C@@H]12 [Compound 60, (5aR,7aS)-5a,7a-dimethyl-8-(pyrimidin-5-yl)-4,5,5a,5b,6,7,7a,10,10a,10b,11,12-dodecahydrocyclopenta[5,6]naphtho[2,1-c]azepin-3(2H)-one]	1 to 10 min	–	–	–	50 to 80%	≥ 30%	–	–	–
C[C@]12CC(=O)C[C@@H]1CC[C@@H]1[C@@H]2CC[C@]2(C)C(n3ccnc3)=CC[C@@H]12 [Compound 108, (3aS,3bS,5aS,8aS,8bR,10aS)-6-(1H-imidazol-1-yl)-3a,5a-dimethyl-3,3a,3b,4,5,5a,8,8a,8b,9,10,10a-dodecahydrodicyclopenta[a,f]naphthalen-2(1H)-one]	1 to 10 min	> 50 min	–	–	> 80%	–	< 11 nM	–	–
C[C@]12CC[C@H]3[C@@H](CC[C@H]4CC(=O)NCC[C@@]43C)C1=CC=C2c1cccnc1 [Compound 165, (5aS,5bS,7aS,10bR,12aS)-5a,7a-dimethyl-8-(pyridin-3-yl)-3,4,5,5a,5b,6,7,7a,10b,11,12,12a-dodecahydrocyclopenta[5,6]naphtho[1,2-d]azepin-2(1H)-one]	1 to 10 min	1 to 50 min	–	–	> 80%	< 30%	< 11 nM	na (“na” means the compound was not active under the conditions tested)	–
C[C@]12CCNC(=O)C=C1CC[C@@H]1[C@@H]2CC[C@]2(C)C(c3cnccn3)=CC[C@@H]12 [Compound 61, (5aR,7aS)-5a,7a-dimethyl-8-(pyrazin-2-yl)-4,5,5a,5b,6,7,7a,10,10a,10b,11,12-dodecahydrocyclopenta[5,6]naphtho[2,1-c]azepin-3(2H)-one]	1 to 10 min	–	–	–	> 80%	≥ 30%	–	–	–
Cc1cncc(C2=CC[C@H]3[C@@H]4CCC5=CC(=O)NCC[C@]5(C)[C@H]4CC[C@]23C)c1 [Compound 51]	10 to 60 min	–	–	–	50 to 80%	≥ 30%	< 11 nM	–	–
C[C@]12CC[C@H]3[C@@H](CCC4=CC(=O)CC[C@@]43C)C1=CC=C2n1ccnc1 [Compound 75, (10R,13S)-17-(1H-imidazol-1-yl)-10,13-dimethyl-6,7,8,9,10,11,12,13-octahydro-1H-cyclopenta[a]phenanthren-3(2H)-one]	10 to 60 min	> 50 min	–	–	> 80%	< 30%	< 11 nM	U (U means the compound had a percent inhibition of greater than or equal to 32%)	–
C[C@]12CC[C@H]3[C@@H](CC[C@H]4C[C@@H](O)CC[C@@]43C)C1=CC=C2n1ccnn1 [Compound 176, (3S,8R,9S,10S,13S)-10,13-dimethyl-17-(1H-1,2,3-triazol-1-yl)-2,3,4,5,6,7,8,9,10,11,12,13-dodecahydro-1H-cyclopenta[a]phenanthren-3-ol]	1 to 10 min	–	> 25 nM	–	–	–	–	–	> 100 nM
COc1cncc(C2=CC[C@H]3[C@@H]4CC[C@H]5COCCC[C@]5(C)[C@H]4CC[C@]23C)c1 [Compound 123, 3-((5aR,5bS,7aS,10aS,10bR,12aR)-5a,7a-dimethyl-3,4,5,5a,5b,6,7,7a,10,10a,10b,11,12,12a-tetradecahydro-1H-cyclopenta[5,6]naphtho[2,1-c]oxepin-8-yl)-5-methoxypyridine]	1 to 10 min	–	–	–	50 to 80%	–	< 11 nM	–	–
COc1cncc(C2=CC[C@H]3[C@@H]4CCN5C(=O)CCCC[C@]5(C)[C@H]4CC[C@]23C)c1 [Compound 40, (11aR,13aS)-1-(5-methoxypyridin-3-yl)-11a,13a-dimethyl-3b,4,5,8,9,10,11,11a,11b,12,13,13a-dodecahydro-3H-azepino[2,1-a]cyclopenta[f]isoquinolin-7(3aH)-one]	1 to 10 min	–	–	–	> 80%	–	< 11 nM	–	–
C[C@]12CCNC(=O)C=C1CC[C@@H]1[C@@H]2CC[C@]2(C)C(n3ccnn3)=CC[C@@H]12 [Compound 59]	1 to 10 min	> 50 min	–	–	> 80%	< 30%	–	na (“na” means the compound was not active under the conditions tested)	–
CN1CC[C@@]2(C)C(=CC1=O)CC[C@@H]1[C@@H]2CC[C@]2(C)C(n3ccnc3)=CC[C@@H]12 [Compound 146]	10 to 60 min	1 to 50 min	–	–	> 80%	< 30%	< 11 nM	U (U means the compound had a percent inhibition of greater than or equal to 32%)	–
C[C@]12CCOCC[C@@H]1CC[C@@H]1[C@@H]2CC[C@]2(C)C(c3cccnc3)=CC[C@@H]12 [Compound 120, 3-((5aS,5bS,7aS,10aS,10bR,12aS)-5a,7a-dimethyl-2,4,5,5a,5b,6,7,7a,10,10a,10b,11,12,12a-tetradecahydro-1H-cyclopenta[5,6]naphtho[1,2-d]oxepin-8-yl)pyridine]	1 to 10 min	–	–	–	> 80%	–	< 11 nM	–	–
C[C@]12CCNC(=O)C[C@@H]1CC[C@@H]1[C@@H]2CC[C@]2(C)C(n3ccnn3)=CC[C@@H]12 [Compound 137]	10 to 60 min	> 50 min	–	< 15 nM	> 80%	–	< 11 nM	–	–
Cc1cncc(C2=CC[C@H]3[C@@H]4CCN5C(=O)CCCC[C@]5(C)[C@H]4CC[C@]23C)c1 [Compound 39, (11aR,13aS)-11a,13a-dimethyl-1-(5-methylpyridin-3-yl)-3b,4,5,8,9,10,11,11a,11b,12,13,13a-dodecahydro-3H-azepino[2,1-a]cyclopenta[f]isoquinolin-7(3aH)-one]	1 to 10 min	–	–	–	50 to 80%	–	< 11 nM	–	–
Cc1cn(C2=CC[C@H]3[C@@H]4CCC5=CC(=O)NCC[C@]5(C)[C@H]4CC[C@]23C)cn1 [Compound 154]	10 to 60 min	–	–	–	50 to 80%	–	< 11 nM	–	–
